Source: US20100256214A1, “EPH RECEPTOR LIGANDS AND METHODS OF USE” (Burnham Institute for Medical Research, priority 2009, published 2010)

Assays:
[1] = biological target: EphA2 (Homo sapiens, UniProt P29317); assay: ELISA, EphA2-ephrin-A5 binding; details: assuming competitive inhibition; read-out: Ki for inhibition of EphA2-ephrin-A5 binding (Cheng-Prusoff)
Method: ELISA Assays and K, Determination—Protein A-coated wells (Pierce Biotecnology, Rockford, Ill.) were used to immobilize ephrin Fc fusion proteins (R&D Systems, Minneapolis, Minn.). Compounds at different concentrations were incubated with EphA4 AP (Cheng and Flanagan, (1994) Cell 79(1), 157-168) or EphA2 AP (Koolpe et al. (2002) J Biol Chem 277(49), 46974-46979) for 3 hours. Alternatively, Eph receptor Fc fusion proteins were immobilized on protein A-coated wells and ephrin-A5 AP (Menzel et al. (2001) Developmental Biology 230(1), 74-88) or ephrin-B2 AP (GeneHunter, Nashville, Tenn.) were added with the compounds. The amount of bound AP-fusion protein was quantified using pNPP as the substrate. […]
To calculate the inhibition constant (KO values, the binding of ephrin-A5 AP to EphA4 Fc immobilized on protein A-coated wells was measured in the absence and in the presence of the compounds at different concentrations. Each data set was fitted to the Michaelis-Menten equation: B=Bmax [S]/(KD+[S]), where [S] is the concentration of ephrin AP fusion protein and KD is the dissociation constant observed in the absence or in the presence of the compound, using non linear regression and the program GraphPad (Prism). To evaluate whether the inhibition is competitive, noncompetitive or uncompetitive the KD and Bmax values were determined at different compound concentrations. […]

[2] = biological target: EphA4 (Mus musculus, UniProt Q03137); assay: ELISA, EphA4 AP binding to immobilized biotinylated KYL peptide; design: made in house; conditioned culture medium used
Chain of EphA4 (Q03137 20-547 limits assumed): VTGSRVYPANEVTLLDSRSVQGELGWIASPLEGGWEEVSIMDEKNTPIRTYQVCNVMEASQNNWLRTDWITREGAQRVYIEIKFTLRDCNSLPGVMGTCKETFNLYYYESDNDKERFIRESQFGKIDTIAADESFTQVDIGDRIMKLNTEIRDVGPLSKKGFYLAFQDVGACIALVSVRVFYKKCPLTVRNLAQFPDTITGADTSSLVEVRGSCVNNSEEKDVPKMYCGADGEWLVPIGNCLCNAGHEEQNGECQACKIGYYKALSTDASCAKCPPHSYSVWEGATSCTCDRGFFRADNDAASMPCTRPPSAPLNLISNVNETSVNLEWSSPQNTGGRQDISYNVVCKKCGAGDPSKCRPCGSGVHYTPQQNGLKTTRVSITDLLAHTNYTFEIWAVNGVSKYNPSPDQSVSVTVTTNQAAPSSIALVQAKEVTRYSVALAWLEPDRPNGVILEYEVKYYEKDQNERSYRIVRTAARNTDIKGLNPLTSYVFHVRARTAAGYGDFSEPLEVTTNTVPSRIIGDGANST
Method: Chemical Library Screening for EphA4 Inhibitors—A 96-well format in vitro assay was used for compound screening. Polystyrene high binding capacity plates (Corning, Corning, N.Y.) were incubated overnight at 4° C. with 2 μg/mL streptavidin (Pierce Biotecnology, Rockford, Ill.) diluted in borate buffer 0.1 M pH 8.7 and then coated by overnight incubation with 0.1 μM of biotinylated KYL peptide (Murai et al. (2003) Mol Cell Neurosci 24(4), 1000-1011) in binding buffer (Tris-buffered saline (TBS; 150 mM NaCl, 50 mM Tris-HCl, pH 7.5) with 1 mM CaCl2 and 0.01% Tween 20). Compounds were added to the wells at 10 μg/mL in 100% dimethylsulfoxide (DMSO) together with EphA4 alkaline phosphatase fusion protein (EphA4 AP) produced from transfected cells. Cell culture medium containing the secreted EphA4 AP was diluted 1:16 in binding buffer. The mixture was incubated for 3 hours at room temperature before washing with binding buffer and adding p-nitrophenylphosphate (pNPP) (Pierce Biotecnology, Rockford, Ill.) as the substrate. After 1 hour the reaction was stopped by adding 2N NaOH and the absorbance at 405 nm was measured using an ELISA plate reader Alkaline phosphatase activity from wells where alkaline phosphatase (AP) was added instead of EphA4 AP was subtracted as background. The inhibitory activity of the compounds was calculated by dividing the absorbance observed in the presence of each compound and the absorbance from wells where no compound was added. Compounds with inhibitory activity higher than 50% were considered hits.

[3] = test system: retinal neurons; assay: Growth cone collapse assay, nasal retina explants; type: cell-based, chicken; details: for ephrin-A5 Fc induced growth cone collapse: 1 μg/mL ephrin-A5 Fc, 400 μM compound, 5 μM KYL peptide; for shape of unstimulated growth cones: concentrations as high as 400 μM
Method: FIGS. 8A-8F. Compounds 1 and 2 block EphA4-dependent growth cone collapse in retinal neurons. A. Explants from embryonic day 6 chicken embryonic were preincubated with 5 μM KYL peptide for 15 min, stimulated for 30 min with 1 μg/mL ephrin-A5 Fc or Fc as a control in the continued presence of the peptide, and stained with rhodamine-phalloidin to label filamentous actin. B. Histogram showing the mean percentages of collapsed growth cones. Growth cones were scored as collapsed when no lamellipodia or filopodia were visible at the tip of the neurite. Approximately 30-200 growth cones per condition were scored in each experiment and error bars indicate standard error from 3 independent experiments. C-F. Experiments were performed as in (A), except that retinal explants were treated with 400 μM compound 1 (C,D) or compound 2 (E,F). Approximately 80-250 growth cones per condition were scored in each experiment, and error bars indicate standard error from 3 experiments. Collapsed growth cones under different conditions were compared to those in the Fc control condition by one-way ANOVA and Dunnett's post test. *P<0.05 and **P<0.01. Scale bars in (A), (C), (E)=[…].
Growth Cone Collapse Assay—Nasal retina explants from embryonic day 6 chicken embryos were cultured on coverslips coated with 200 μg/mL poly-L-lysine and 20 μg/mL lamining for 12 to 24 hours in DMEM/F-12 culture medium containing 10% FBS and 0.4% methylcellulose. Three hours before adding the Fc fusion proteins, the medium was changed to DMEM/F-12 without methylcellulose. The explants were incubated for 15 min with the KYL peptide or the chemical compounds and then stimulated for 30 min with 1 μg/mL preclustered ephrin-A5 Fc or Fc as a control. The cultures were fixed for 30 min in 4% paraformaldehyde/4% sucrose in phosphate buffered saline (PBS), permeabilized in 0.1% Triton X-100 in PBS and stained with rhodamine-conjugated phalloidin (Invitrogen, Carlsbad, Calif.). Cells were photographed under a fluorescence microscope and growth cones where scored in a blinded manner as collapsed when no lamellipodia or filopodia were present at the tip of the neurite.

Chain of EphA2 (P29317 25-534 limits assumed, species assumed): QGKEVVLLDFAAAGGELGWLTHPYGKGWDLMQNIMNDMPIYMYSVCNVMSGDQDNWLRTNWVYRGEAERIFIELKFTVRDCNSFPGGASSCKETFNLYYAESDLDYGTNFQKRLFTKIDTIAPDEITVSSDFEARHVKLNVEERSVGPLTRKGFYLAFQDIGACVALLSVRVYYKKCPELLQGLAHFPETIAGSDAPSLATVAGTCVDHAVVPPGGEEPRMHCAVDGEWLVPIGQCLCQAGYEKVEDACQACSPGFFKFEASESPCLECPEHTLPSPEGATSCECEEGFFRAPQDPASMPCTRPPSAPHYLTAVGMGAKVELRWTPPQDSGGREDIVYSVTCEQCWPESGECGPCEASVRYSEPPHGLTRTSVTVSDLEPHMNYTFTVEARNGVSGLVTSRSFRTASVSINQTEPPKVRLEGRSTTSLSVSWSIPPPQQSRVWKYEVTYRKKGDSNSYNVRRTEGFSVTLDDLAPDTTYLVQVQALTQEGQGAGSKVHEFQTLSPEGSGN

| Structure (SMILES) | Ki [1] | inhibition of EphA4-KYL peptide binding (in words) [2] | ephrin-A5 Fc induced growth cone collapse [3] | ephrin-A5 Fc induced growth cone collapse ([3]; listed as Compound 1) | shape of unstimulated growth cones [3] | IC50 ([2]; read-out: IC50 for inhibition of EphA4 AP binding to KYL peptide) |
| --- | --- | --- | --- | --- | --- | --- |
| Cc1ccc(C)n1-c1ccc(C(=O)O)c(O)c1 [compound 1, 4-(2,5-dimethyl-pyrrol-1-yl)-2-hydroxy-benzoic acid] | 11 to 14 µM | inhibit | block | blocked | neither the KYL peptide nor the two compounds at concentrations as high as 400 μM affected the shape |  |
| Cc1ccc(C)n1-c1ccc(O)c(C(=O)O)c1 [compound 2, 5-(2,5 dimethyl-pyrrol-1-yl)-2-hydroxy-benzoic acid] | 10 to 13 µM | inhibit | block |  | neither the KYL peptide nor the two compounds at concentrations as high as 400 μM affected the shape | 3 µM |
